From patent US20220235011A1, “PHTHALAZINONE COMPOUNDS AND USE THEREOF” (ST PHARM CO., LTD., priority 2019, published 2022)

target: T1, Sirt6 (Homo sapiens, UniProt Q8N6T7); assay: Measurement of Sirt6 Activity (CycLex Sirt6 Deacetylase Fluorometric Assay Kit); type: biochemical; conditions: compound at 10 μM; fluorescence relative to the group without compound treatment (positive control group)
T1 construct: purchased CycLex CY-1156V2
Description: LC-MS (ESI, m/z)=430.1 (M+H^+) Experimental Example 1: Measurement of Sirt6 Activity Compounds having Sirt6 activity were selected using a CycLex Sirt6 Deacetylase Fluorometric Assay Kit (cat. CY-1156V2) manufactured by CycLex.
When a fluorescent-attached acetylated lysine substrate is treated with Sirt6 enzyme, Sirt6 deacetylates the acetylated lysine of the substrate and lysylendopeptidase cleaves the C-terminal peptide bond connected to the lysine, by which fluorescence is emitted. The activity of a compound is calculated by observing the intensity of fluorescence when the compound is treated along with Sirt6 enzyme. When treating the compound, the compound aids in the activity of Sirt6 enzyme, so as to result in stronger fluorescence. Therefore, by calculating the ratio of the stronger fluorescence relative to the fluorescence emitted from the group without compound treatment (i.e., positive control group), relative activity can be calculated.
Activity evaluation was performed according to the following procedure.
The compound whose activity is to be evaluated was prepared by diluting in phosphate-buffered saline (PBS) to 10 times of the desired concentration (e.g., when measuring Sirt6 assay activity at 10 μM, the compound is prepared at a concentration of 100 μM in PBS). 1 μL of a 1 Ox Sirt6 assay buffer, 0.8 μL of 50× fluoro-substrate peptide, 1 μL of nicotinamide adenine dinucleotide (NAD), 1 μL of a developer and 4.2 μL of H2O were mixed to prepare mixtures equal to the number of samples, and 8 μL was dispensed into each Black 384 well. An additional 1 μL of PBS was added to each of a “no enzyme group” and a positive control group, and 1 μL of the compound diluted in PBS was added to an activity evaluation group. Recombinant Sirt6 was 1:8 diluted in a 1×Sirt6 assay buffer, and 1 μL thereof was added to each of the positive control group and the activity evaluation group. 1 μL of the 1×Sirt6 assay buffer was added to the “no enzyme group.” After reacting at room temperature for one hour, results were measured with a fluorescence spectrometer (excitation: 490±10 nm, emission: 530±10 nm) to confirm the presence or absence of Sirt6 activity and measure the intensity of the activity.

T1 sequence (Q8N6T7 whole entry): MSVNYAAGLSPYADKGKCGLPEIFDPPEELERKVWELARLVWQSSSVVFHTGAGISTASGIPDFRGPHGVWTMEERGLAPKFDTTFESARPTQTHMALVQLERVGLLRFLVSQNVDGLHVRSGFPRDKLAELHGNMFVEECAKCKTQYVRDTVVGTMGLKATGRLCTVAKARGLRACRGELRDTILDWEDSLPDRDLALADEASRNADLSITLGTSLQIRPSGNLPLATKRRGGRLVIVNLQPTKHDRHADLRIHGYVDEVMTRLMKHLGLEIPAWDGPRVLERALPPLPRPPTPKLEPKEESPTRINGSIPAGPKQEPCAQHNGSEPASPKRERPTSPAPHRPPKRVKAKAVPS

| Structure (SMILES) | Sirt6 Activity (% activity, 10 μM) |
| --- | --- |
| CCS(=O)(=O)Nc1cccc(-c2nn(-c3ccccc3)c(=O)c3ccccc23)c1 [Example 1, N-(3-(4-Oxo-3-phenyl-3,4-dihydrophthalazin-1-yl)phenyl)ethanesulfonamide] | 170 % activity |
| Nc1cccc(-c2nn(-c3ccc(C(F)(F)F)cc3)c(=O)c3ccccc23)c1 [Example 2, 4-(3-Aminophenyl)-2-(4-(trifluoromethyl)phenyl)phthalazin-1(2H)-one] | 88 % activity |
| CCS(=O)(=O)Nc1cccc(-c2nn(-c3ccc(C(F)(F)F)cc3)c(=O)c3ccccc23)c1 [Example 3, N-(3-(4-Oxo-3-(4-(trifluoromethyl)phenyl)-3,4-dihydrophthalazin-1-yl)phenyl)ethanesulfonamide] | 104 % activity |
| CCNc1cccc(-c2nn(-c3ccc(C(F)(F)F)cc3)c(=O)c3ccccc23)c1 [Example 4, 4-(3-(Ethylamino)phenyl)-2-(4-(trifluoro-methyl)phenyl)phthalazin-1(2H)-one] | 102 % activity |
| CCS(=O)(=O)N(C)c1cccc(-c2nn(-c3ccc(C(F)(F)F)cc3)c(=O)c3ccccc23)c1 [Example 5, N-Methyl-N-(3-(4-oxo-3-(4-(trifluoromethyl)phenyl)-3,4-dihydrophthalazin-1-yl)phenyl)ethanesulfonamide] | 105 % activity |
| CS(=O)(=O)Nc1cccc(-c2nn(-c3ccccc3)c(=O)c3ccccc23)c1 [Example 6, N-(3-(4-Oxo-3-phenyl-3,4-dihydrophthalazin-1-yl)phenyl)methanesulfonamide] | 102 % activity |
| CN(c1cccc(-c2nn(-c3ccccc3)c(=O)c3ccccc23)c1)S(C)(=O)=O [Example 7, N-Methyl-N-(3-(4-oxo-3-phenyl-3,4-dihydro-phthalazin-1-yl)phenyl)methanesulfonamide] | 173 % activity |
| CCS(=O)(=O)Nc1ccc(-c2nn(-c3ccccc3)c(=O)c3ccccc23)cc1 [Example 8, N-(4-(4-Oxo-3-phenyl-3,4-dihydrophthalazin-1-yl)phenyl)ethanesulfonamide] | 100 % activity |
| CN(C)S(=O)(=O)Nc1cccc(-c2nn(-c3ccccc3)c(=O)c3ccccc23)c1 [Example 9] | 154 % activity |
| CS(=O)(=O)Nc1cccc(-c2nn(-c3ccc(F)cc3)c(=O)c3ccccc23)c1 [Example 10, N-(3-(3-(4-Fluorophenyl)-4-oxo-3,4-dihydrophthalazin-1-yl)phenyl)methanesulfonamide] | 198 % activity |
| CCS(=O)(=O)Nc1cccc(-c2nn(-c3ccc(F)cc3)c(=O)c3ccccc23)c1 [Example 11, N-(3-(3-(4-Fluorophenyl)-4-oxo-3,4-dihydrophthalazin-1-yl)phenyl)ethanesulfonamide] | 162 % activity |
| CN(C)S(=O)(=O)Nc1cccc(-c2nn(-c3ccc(F)cc3)c(=O)c3ccccc23)c1 [Example 12, N-(3-(3-(4-Fluorophenyl)-4-oxo-3,4-dihydrophthalazin-1-yl)phenyl)dimethylsulfamoylamide] | 189 % activity |
| C/[N+]([O-])=C/c1cccc(-c2nn(-c3ccccc3)c(=O)c3ccccc23)c1 [Example 13, (Z)—N-Methyl-1-(3-(4-oxo-3-phenyl-3,4-dihydrophthalazin-1-yl)phenyl)methanimine Oxide] | 181 % activity |
| CC(C)/[N+]([O-])=C/c1cccc(-c2nn(-c3ccccc3)c(=O)c3ccccc23)c1 [Example 14, (Z)—N-Isopropyl-1-(3-(4-oxo-3-phenyl-3,4-dihydrophthalazin-1-yl)phenyl)methanimine Oxide] | 121 % activity |
| C/[N+]([O-])=C/c1cccc(-c2nn(-c3ccc(F)cc3)c(=O)c3ccccc23)c1 [Example 15, (Z)-1-(3-(3-(4-Fluorophenyl)-4-oxo-3,4-dihydrophthalazin-1-yl)phenyl)-N-methylmethanimine Oxide] | 231 % activity |
| CC/[N+]([O-])=C/c1cccc(-c2nn(-c3ccc(F)cc3)c(=O)c3ccccc23)c1 [Example 16, (Z)—N-Ethyl-1-(3-(3-(4-fluorophenyl)-4-oxo-3,4-dihydrophthalazin-1-yl)phenyl)methanimine Oxide] | 221 % activity |
| CS(=O)(=O)N(c1cc(-c2nn(-c3ccccc3)c(=O)c3ccccc23)ccc1Cl)S(C)(=O)=O [Example 18, N-(2-Chloro-5-(4-oxo-3-phenyl-3,4-dihydrophthalazin-1-yl)phenyl)-N-(methylsulfonyl)methane-sulfonamide] | 114 % activity |
| CN(C)S(=O)(=O)Nc1cc(-c2nn(-c3ccccc3)c(=O)c3ccccc23)ccc1Cl [Example 19, N-(3-(3-(Phenyl)-4-oxo-3,4-dihydrophthalazin-1-yl)-6-chlorophenyl)dimethyl Sulfamoylamide] | 120 % activity |
| COC(=O)NS(=O)(=O)Nc1cccc(-c2nn(-c3ccc(F)cc3)c(=O)c3ccccc23)c1 [Example 20, Methyl (N-(3-(3-(4-fluorophenyl)-4-oxo-3,4-dihydrophthalazin-1-yl)phenyl)sulfamoyl) Carbamate] | 211 % activity |
| C/[N+]([O-])=C/c1cccc(-c2nn(-c3ccc(F)cc3F)c(=O)c3ccccc23)c1 [Example 21, (Z)-1-(3-(3-(2,4-Difluorophenyl)-4-oxo-3,4-dihydrophthalazin-1-yl)phenyl)-N-methyl methanimine Oxide] | 167 % activity |
| CC(C)/[N+]([O-])=C/c1cccc(-c2nn(-c3ccc(F)cc3F)c(=O)c3ccccc23)c1 [Example 22, (Z)-1-(3-(3-(2,4-Difluorophenyl)-4-oxo-3,4-dihydrophthalazin-1-yl)phenyl)-N-isopropyl Methanimine Oxide] | 201 % activity |
| CC(C)(C)/[N+]([O-])=C/c1cccc(-c2nn(-c3ccc(F)cc3F)c(=O)c3ccccc23)c1 [Example 23, (Z)—N-tert-Butyl-1-(3-(3-(2,4-difluorophenyl)-4-oxo-3,4-dihydrophthalazin-1-yl)phenyl)methanimine Oxide] | 192 % activity |
| Nc1cccc(-c2nn(-c3ccc(F)cc3F)c(=O)c3ccccc23)c1 [Example 24, 4-(3-Aminophenyl)-2-(2,4-difluorophenyl)phthalazin-1(2H)-one] | 147 % activity |
| CCS(=O)(=O)Nc1cccc(-c2nn(-c3ccc(F)cc3F)c(=O)c3ccccc23)c1 [Example 25, N-(3-(3-(2,4-Difluorophenyl)-4-oxo-3,4-dihydrophthalazin-1-yl)phenyl)ethanesulfonamide] | 147 % activity |
| COC(=O)NS(=O)(=O)Nc1cccc(-c2nn(-c3ccc(F)cc3F)c(=O)c3ccccc23)c1 [Example 26, Methyl (N-(3-(3-(2,4-difluorophenyl)-4-oxo-3,4-dinydrophthalazin-1-yl)phenyl)sulfamoyl)carbamate] | 180 % activity |
| C/[N+]([O-])=C/c1cccc(-c2nn(-c3cccc(F)c3)c(=O)c3ccccc23)c1 [Example 27, (Z)-1-(3-(3-(3-Fluorophenyl)-4-oxo-3,4-dihydrophthalazin-1-yl)phenyl)-N-methylmethanimine Oxide] | 148 % activity |
| CC(C)/[N+]([O-])=C/c1cccc(-c2nn(-c3cccc(F)c3)c(=O)c3ccccc23)c1 [Example 28, (Z)-1-(3-(3-(3-Fluorophenyl)-4-oxo-3,4-dihydrophthalazin-1-yl)phenyl)-N-isopropylmethanimine Oxide] | 154 % activity |
| CC(C)(C)/[N+]([O-])=C/c1cccc(-c2nn(-c3cccc(F)c3)c(=O)c3ccccc23)c1 [Example 29, (Z)—N-tert-Butyl-1-(3-(3-(3-fluorophenyl)-4-oxo-3,4-dihydrophthalazin-1-yl)phenyl)methanimine Oxide] | 162 % activity |
| CCS(=O)(=O)Nc1cccc(-c2nn(-c3cccc(F)c3)c(=O)c3ccccc23)c1 [Example 30, N-(3-(3-(3-Fluorophenyl)-4-oxo-3,4-dihydrophthalazin-1-yl)phenyl)ethanesulfonamide] | 117 % activity |

same assay, conditions: compound at 10 μM; fluorescence relative to the group without compound treatment (positive control group); 10 µM

| Structure (SMILES) | Sirt6 Activity (% activity, 10 μM) |
| --- | --- |
| CC(C)/[N+]([O-])=C/c1cccc(-c2nn(-c3ccc(F)cc3)c(=O)c3ccccc23)c1 [Example 17, (Z)-1-(3-(3-(4-Fluorophenyl)-4-oxo-3,4-dihydrophthalazin-1-yl)phenyl)-N-isopropylmethanimine Oxide] | 207 % activity |
